According to paper PMC12198407, “Preclinical and first-in-human of purinostat mesylate, a novel selective HDAC I/IIb inhibitor, in relapsed/refractory multiple myeloma and lymphoma” (Signal Transduction and Targeted Therapy, 2025):
Values joined by “and” are separate entries in the source; they are usually repeats but may differ in a detail not shown here. Equal entries are not always repeated. Where two headings read alike, the source gives them in different places.

Experiments:
[1] = target: HDAC3 (Homo sapiens, UniProt O15379); assay: HDAC enzyme activity in vitro; type: biochemical
[2] = system: RPMI-8226 xenograft (TP53 E285K); assay: RPMI-8226 xenograft mouse model, PM+Pd combination; type: in vivo, NOD-SCID mice; settings: PM 5 mg/kg; Dara+Bort+DXM 5+0.1+1; Pd 2.5+1; PM+Pd 5+2.5+1 mg/kg
Experimental: Mice received subcutaneous inoculation with 0.5 × 10^7 MM1S or RPMI-8226 cells, to establish xenograft models. […] When tumors reached 150–250 mm^3, mice were treated with various compounds. PM and panobinostat were administered intravenously three times a week at 5 mg/kg in combination therapy. […] Tumor volume (tumor volume (mm^3) = π/6 × length × width^2) and body weights were measured every two days. At the end, tumor tissues were weighed, and antitumor activity was evaluated by the tumor inhibition rate = (1 − tumor weight of treatment group/tumor weight of vehicle group) × 100%.

[3] = system: serum cytokines and T cells in PB; assay: Phase I trial, serum cytokines and PB T cells in responders; type: in vivo, human; settings: after 1 week
[4] = system: bone destruction; assay: Micro-CT of femur, 5TMM model; type: in vivo, C57BL/KawRij mice; settings: 10 mg/kg for 4 weeks
Experimental: The cMYC-KRAS12V-induced plasmacytoma mouse model in BALB/c (GemPharmatech Co., Ltd., Nanjing, China) was established as previously described.[33] On day 28 or 35 post bone marrow transplantation, recipients received various treatments. The 5TMM mouse model was established as previously described.[55] The 5TGM1-luc cells were intravenously injected into 6-week-old C57BL/KawRij mice (Harlan Co. Netherlands) with 2 × 10^6 cells per mouse. After three weeks, mice were treated with vehicle or PM 10 mg/kg. Serum Ca^2+ levels were monitored weekly for three weeks after the start of administration. Kaplan-Meier survival curves were generated for each treatment group. Additionally, the 5TMM mouse model studying PM’s effects on immune response and bone destruction involved randomizing mice into vehicle and PM (10 mg/kg) groups one week after inoculation. T cell subsets were analyzed by flow cytometry 24 h after a single dose and 1 month after vehicle or PM treatment. The mice were sacrificed after 1 month of treatment, and the bone destruction was detected by Micro-CT.

[5] = system: human Burkitt lymphoma Raji; assay: Raji subcutaneous tumor model; type: in vivo, NOD/SCID mice
Excerpt: In contrast, both batches of the positive control CODOX group experienced instances of individual mortality during administration.

[6] = Safety pharmacology, CNS and respiratory; type: in vivo, rats; settings: 30 and 90 mg/kg i.v.
Experimental: In the 1.2 and 3.6 mg/kg groups, transient increases in heart rate were observed, and in the 3.6 mg/kg group, a transient and reversible prolongation of QT interval (9.6%) was also noted. Additionally, there were no significant effects observed on other qualitative and quantitative ECG parameters or blood pressure in the dogs. […] In the 90 mg/kg group, reduced locomotor activity and decreased standing frequency were also observed, but these effects returned to baseline after 24 hours. No significant effects were noted on other neurological behaviors in rats, and no impacts on the respiratory system were observed.

[7] = system: CHL cells; assay: In vitro chromosomal aberration test; type: cell-based; settings: 30–1000 µg/mL 4 h ±S9; 3.75–30 µg/mL 24 h
Experimental: This experiment employed two methods: one without the S9 metabolic activation system and one with the S9 metabolic activation system. The method without the S9 metabolic activation system utilized two exposure times of 4 hours and 24 hours, while the method with the S9 metabolic activation system used a 4-hour exposure time. The test was conducted using a 2% dosing volume ratio. Under the 4-hour exposure conditions, the final concentrations of Purinostat Mesylate were set at 30, 100, 300, and 1000 µg/mL; under the 24-hour exposure conditions, the final concentrations were set at 3.75, 7.5, 15, and 30 µg/mL. Additionally, a solvent control group (DMSO) and a positive control group (administering the appropriate positive agent) were included. After the culture period for each concentration group, cells were collected and prepared for microscopy. After Giemsa staining, 1000 cells were observed under a microscope to record the number of cells in the metaphase stage and calculate the mitotic index inhibition rate for each group. For chromosome aberration assessment, 200 metaphase cells were observed, and the chromosome aberration rate was calculated for each group.

[8] = Pharmacokinetics, intravenous; type: in vivo, SD rats; settings: for AUC(0-t) / half-life / Vd / clearance / C0: both sexes, SD, rat, plasma, iv; for Vd: read-out: Vdss; for clearance: read-out: plasma clearance (CL); for increase in AUC0-last for tenfold increase in dose: 1 to 10 mg/kg
Experimental: After a single intravenous injection of Purinostat Mesylate at doses of 1, 3, and 10 mg/kg, the average initial concentrations (C0) in male and female SD rats were 736 ± 66.5, 2880 ± 566, and 11500 ± 1790 ng/mL, respectively. […] The half-lives (T1/2) were 3.79 ± 0.511, 4.21 ± 0.248, and 6.24 ± 1.57 min, respectively. The area under the curve (AUC0-last) values were 55.3 ± 3.68, 248 ± 36.1, and 1280 ± 122 ng.h/mL, respectively. After daily intravenous injections of 3 mg/kg Purinostat Mesylate for 7 consecutive days, the average AUC0-last on day 7 for both male and female rats was 332 ± 43.6 ng.h/mL.

[9] = Pharmacokinetics in plasma and tumor, HCT116 tumor-bearing mice; type: in vivo, nude mice
Experimental: The mean residence time (MRT) was 0.51 ± 0.06 hours in plasma and 39.48 ± 4.74 hours in tumor.

[10] = system: human liver cells; assay: Cytotoxicity on donor liver cells; type: cell-based

Sequence of HDAC3 (O15379 whole entry): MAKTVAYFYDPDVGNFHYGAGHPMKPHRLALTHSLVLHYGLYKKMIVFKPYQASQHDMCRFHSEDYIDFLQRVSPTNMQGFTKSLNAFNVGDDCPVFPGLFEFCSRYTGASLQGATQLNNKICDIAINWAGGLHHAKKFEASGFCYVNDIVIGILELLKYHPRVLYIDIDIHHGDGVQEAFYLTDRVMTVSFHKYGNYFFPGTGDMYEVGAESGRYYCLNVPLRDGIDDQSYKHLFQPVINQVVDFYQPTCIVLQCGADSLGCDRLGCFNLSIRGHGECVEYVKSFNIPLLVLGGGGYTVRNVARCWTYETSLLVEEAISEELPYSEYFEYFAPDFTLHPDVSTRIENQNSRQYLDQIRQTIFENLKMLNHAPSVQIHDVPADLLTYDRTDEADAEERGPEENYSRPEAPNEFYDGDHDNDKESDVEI
Sequence of HDAC3 (Q9Y618 395-489 partner limits assumed): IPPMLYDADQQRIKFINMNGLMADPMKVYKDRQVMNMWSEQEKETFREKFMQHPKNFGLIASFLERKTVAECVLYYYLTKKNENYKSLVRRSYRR

With `CN(Cc1nc2c(N3CCOCC3)nc(-c3ccc(N)cc3)nc2n1C)c1ncc(C(=O)NO)cn1.CS(=O)(=O)O` [PM, 2-(((2-(4-Aminophenyl)-9-methyl-6-(4-morpholinyl)-9H-purine-8-yl)methyl)methylamino)-N-hydroxy-5-pyrimidine-carboxamide Mesylate] as the compound, how does the IC50 [1] read?
Its IC50 is 1.7 nM.

And the tumor inhibition rate [2]?
The tumor inhibition rate was 86.05%.

What about the “proportion of CD3+CD4+ T cells in PB” value ([3]; before 4.12%) of the same compound?
Its value is 6.49%.

And the “proportion of CD3+CD8+ T cells in PB” value ([3]; before 4.30%)?
The value was 9.56%.

And the “proportion of CD3+ T cells in PB” value ([3]; before 8.42%)?
Its value is 16.05%.

And the “bone structure of femur (Micro-CT)” value [4]?
Its value is “effectively prevented bone destruction and trabecular changes on the femoral surface”.

What about the T/C ([5]; 1.25 mg/kg) of the same compound?
Its T/C is 48.13±5.13%.

And the tumor inhibition rate ([5]; 1.25 mg/kg, mean of two batches)?
The tumor inhibition rate was 52.03 ± 3.36%.

What about the T/C ([5]; 2.5 mg/kg) of the same compound?
The T/C was 31.86±8.56%.

What about the tumor inhibition rate ([5]; 2.5 mg/kg) of the same compound?
Its tumor inhibition rate is 66.15 ± 12.49%.

What about the T/C ([5]; 5 mg/kg) of the same compound?
Its T/C is 18.11±7.50%.

What about the tumor inhibition rate ([5]; 5 mg/kg) of the same compound?
The tumor inhibition rate was 81.65 ± 8.67%.

And the T/C ([5]; 10 mg/kg)?
Its T/C is 7.75±5.02%.

And the tumor inhibition rate ([5]; 10 mg/kg)?
Its tumor inhibition rate is 89.98 ± 8.01%.

What about the median survival time ([5]; satellite group, 10 mg/kg) of the same compound?
Its median survival time is 39 days.

What about the body temperature [6] of the same compound?
The body temperature was “a decrease in body temperature”.

And the “chromosomal aberration test result” value [7]?
Its value is “negative”.

And the AUC(0-t) ([8]; 1 mg/kg, read-out: AUC0-last)?
The AUC(0-t) was 55.3 ± 3.68 ng·h/mL.

And the half-life ([8]; 1 mg/kg, read-out: T1/2)?
The half-life was 3.79 ± 0.511 min.

What about the Vd ([8]; 1 mg/kg) of the same compound?
The Vd was 1.43 ± 0.135 L/kg.

And the clearance ([8]; 1 mg/kg)?
Its clearance is 301 ± 20 mL/min/kg.

And the AUC(0-t) ([8]; 3 mg/kg, 3 mg/kg daily i.v. for 7 days, read-out: AUC0-last on day 7)?
Its AUC(0-t) is 332 ± 43.6 ng·h/mL.

And the AUC(0-t) ([8]; 3 mg/kg, read-out: AUC0-last)?
Its AUC(0-t) is 248 ± 36.1 ng·h/mL.

What about the half-life ([8]; 3 mg/kg, read-out: T1/2) of the same compound?
The half-life was 4.21 ± 0.248 min.

What about the Vd ([8]; 3 mg/kg) of the same compound?
Its Vd is 1.13 ± 0.241 L/kg.

What about the clearance ([8]; 3 mg/kg) of the same compound?
Its clearance is 205 ± 36.4 mL/min/kg.

What about the AUC(0-t) ([8]; 10 mg/kg, read-out: AUC0-last) of the same compound?
Its AUC(0-t) is 1280 ± 122 ng·h/mL.

And the half-life ([8]; 10 mg/kg, read-out: T1/2)?
The half-life was 6.24 ± 1.57 min.

What about the Vd ([8]; 10 mg/kg) of the same compound?
Its Vd is 0.948 ± 0.125 L/kg.

What about the clearance ([8]; 10 mg/kg) of the same compound?
Its clearance is 131 ± 12.8 mL/min/kg.

What about the C0 ([8]; 1 mg/kg single i.v.) of the same compound?
The C0 was 736 ± 66.5 ng/mL.

And the C0 ([8]; 3 mg/kg single i.v.)?
Its C0 is 2880 ± 566 ng/mL.

And the C0 ([8]; 10 mg/kg single i.v.)?
The C0 was 11500 ± 1790 ng/mL.

And the half-life ([8]; single i.v., range over doses, read-out: half-life)?
The half-life was 3.79 to 6.24 min.

What about the “increase in AUC0-last for tenfold increase in dose” value ([8]; female rats) of the same compound?
The value was 24.4 fold.

And the “increase in AUC0-last for tenfold increase in dose” value ([8]; male rats)?
The value was 21.7 fold.

What about the “tumor AUC(0-96h)” value ([9]; multiple i.v. 10 mg/kg) of the same compound?
Its value is 9068 ± 213 µg·h/L.

And the Cmax ([9]; nude, mouse, plasma, iv, 10 mg/kg, single i.v. 10 mg/kg, read-out: Cmax in plasma)?
Its Cmax is 442 ± 67.2 ng/mL.

And the MRT ([9]; nude, mouse, plasma, iv, 10 mg/kg, single i.v. 10 mg/kg, read-out: MRT in plasma)?
The MRT was 0.51 ± 0.06 h.

What about the half-life ([9]; nude, mouse, plasma, iv, 10 mg/kg, single i.v. 10 mg/kg, read-out: elimination half-life (T1/2) in plasma (converted)) of the same compound?
Its half-life is 1.21 h.

And the AUC(0-t) ([9]; nude, mouse, plasma, iv, single i.v. 10 mg/kg, read-out: plasma AUC(0-8h))?
The AUC(0-t) was 174 ± 25.2 ng·h/mL.

What about the Kp ([9]; nude, mouse, tumor and plasma, intravenous, 10 mg/kg, single dose, read-out: tumor AUC0-t / plasma AUC0-t ratio) of the same compound?
The Kp was 74.4.

What about the concentration at 96 h ([9]; nude, mouse, tumor, intravenous, 10 mg/kg, single dose, read-out: drug concentration in tumor tissue after 96 hours) of the same compound?
The concentration at 96 h was 69 ng/mL and ~140 nM.

What about the Cmax ([9]; nude, mouse, tumor, iv, 10 mg/kg, multiple i.v. 10 mg/kg, read-out: Cmax in tumor) of the same compound?
The Cmax was 283 ± 64.8 ng/mL.

And the MRT ([9]; nude, mouse, tumor, iv, 10 mg/kg, multiple i.v. 10 mg/kg, read-out: MRT in tumor)?
Its MRT is 34.7 ± 1.86 h.

What about the half-life ([9]; nude, mouse, tumor, iv, 10 mg/kg, multiple i.v. 10 mg/kg, read-out: elimination half-life (T1/2) in tumor (converted)) of the same compound?
The half-life was 68.7 ± 54.5 h.

And the Cmax ([9]; nude, mouse, tumor, iv, 10 mg/kg, single i.v. 10 mg/kg, read-out: Cmax in tumor)?
The Cmax was 1040 ± 167 ng/mL.

What about the MRT ([9]; nude, mouse, tumor, iv, 10 mg/kg, single i.v. 10 mg/kg, read-out: MRT in tumor) of the same compound?
Its MRT is 39.5 ± 4.74 h.

What about the half-life ([9]; nude, mouse, tumor, iv, 10 mg/kg, single i.v. 10 mg/kg, read-out: elimination half-life (T1/2) in tumor (converted)) of the same compound?
The half-life was 45.3 h.

What about the “tumor AUC(0-96h)” value ([9]; single i.v. 10 mg/kg) of the same compound?
The value was 12922 ± 498 µg/Lh.

What about the “cytotoxicity on donor liver cells” value [10] of the same compound?
The value was “exhibited cytotoxic effects on donor liver cells at concentrations up to 5.00 μM”.
